Target: Lysine-specific histone demethylase 1A (Homo sapiens, UniProt O60341)
Experiment: Inhibition of recombinant LSD1 (unknown origin) expressed in Escherichia coli BL21 (DE3) using H3K4me2 peptide as substrate incubated for 30 mins by fluorescence based microplate reader assay

## CN(C)CCCN1c2ccccc2Sc2ccc(Cl)cc21 [CHLORPROMAZINE]
  IC50: 5.14 µM

## CN1CCN(CCCN2c3ccccc3Sc3ccccc32)CC1 [PERAZINE]
  IC50: 0.909 µM

Reference: ChEMBL document CHEMBL5247647, “Phenothiazine-Based LSD1 Inhibitor Promotes T-Cell Killing Response of Gastric Cancer Cells” (J Med Chem, 2023)
